Our source for the IC50 values is BindingDB's records for doi:10.1021/jm020093q (Brown University, 2002).

The nature of the assay: Concentration required for 50% Inhibition of activity against Yersinia Protein-tyrosine phosphatase.

`O=C(O)C(=O)c1ccc(OCc2cc(COc3ccc(C(=O)C(=O)O)cc3)cc(COc3ccc(C(=O)C(=O)O)cc3)c2)cc1` [{4-[3,5-Bis-(4-oxalyl-phenoxymethyl)-benzyloxy]-phenyl}-oxo-acetic acid] came in with an IC50 of 1.7 µM.
As to `O=C(O)C(=O)c1ccc(OCc2cccc(COc3ccc(C(=O)C(=O)O)cc3)c2)cc1` [{4-[3-(4-Oxalyl-phenoxymethyl)-benzyloxy]-phenyl}-oxo-acetic acid], the IC50 worked out at 4.1 µM.
As for `O=C(O)C(=O)c1ccc(OCc2ccccc2COc2ccc(C(=O)C(=O)O)cc2)cc1` [{4-[2-(4-Oxalyl-phenoxymethyl)-benzyloxy]-phenyl}-oxo-acetic acid], the IC50 was found to be 8.5 µM.
`O=C(O)C(=O)c1ccc(OCc2ccc(COc3ccc(C(=O)C(=O)O)cc3)cc2)cc1` [{4-[4-(4-Oxalyl-phenoxymethyl)-benzyloxy]-phenyl}-oxo-acetic acid] returned an IC50 of 0.7 µM.
In the case of `O=C(O)C(=O)c1ccc(O)cc1` [(4-Hydroxy-phenyl)-oxo-acetic acid] it was 200 µM.
